Laboratory results published in the supplement of paper PMC10627819.

How the values were obtained:
Assay in all cases: fitness (endpoint OD595 vs no drug) (fraction); higher = more growth
B. subtilis 168 = test system: B. subtilis 168
Method in brief: (§1)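 Fitness was defined as the optical density at the transition into stationary phase relative to the robust mean of no-drug control wells. Values were capped at 1. Cultures were started at OD595 0.01 in 384-well plates (30 µl, or 55 µl for S. pneumoniae) in TSB, LB Lennox or CY at 37 °C. OD595 was recorded every 30 min over 14 h, with the first reading subtracted as background.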

S. aureus Newman = test system: S. aureus Newman
Method in brief: as §1

S. pneumoniae D39V = test system: S. pneumoniae D39V
Method in brief: as §1

S. aureus DSM 20231 = conditions: main component drawn
Method in brief: as §1

O=C(O)c1cn(C2CC2)c2cc(N3CCNCC3)c(F)cc2c1=O [Ciprofloxacin] + CC1=C(C(=O)O)N2C(=O)[C@@H](NC(=O)[C@H](N)c3ccccc3)[C@H]2SC1 [Cephalexin]
Conditions | fitness
B. subtilis 168, first compound 0.0098 µg/mL, partner 0.125 µg/mL | 0.886
B. subtilis 168, first compound 0.0098 µg/mL, partner 0.25 µg/mL | 0.88
B. subtilis 168, first compound 0.0098 µg/mL, partner 0.5 µg/mL | 0.829
B. subtilis 168, first compound 0.0195 µg/mL, partner 0.125 µg/mL | 0.69
B. subtilis 168, first compound 0.0195 µg/mL, partner 0.25 µg/mL | 0.68
B. subtilis 168, first compound 0.0195 µg/mL, partner 0.5 µg/mL | 0.705
B. subtilis 168, first compound 0.039 µg/mL, partner 0.125 µg/mL | 0.0501
B. subtilis 168, first compound 0.039 µg/mL, partner 0.25 µg/mL | 0.0506
B. subtilis 168, first compound 0.039 µg/mL, partner 0.5 µg/mL | 0.062
S. aureus Newman, first compound 0.0375 µg/mL, partner 0.25 µg/mL | 0.732
S. aureus Newman, first compound 0.0375 µg/mL, partner 0.5 µg/mL | 0.77
S. aureus Newman, first compound 0.0375 µg/mL, partner 1 µg/mL | 0.753
S. aureus Newman, first compound 0.075 µg/mL, partner 0.25 µg/mL | 0.727
S. aureus Newman, first compound 0.075 µg/mL, partner 0.5 µg/mL | 0.725
S. aureus Newman, first compound 0.075 µg/mL, partner 1 µg/mL | 0.733
S. pneumoniae D39V, first compound 0.125 µg/mL, partner 2 µg/mL | 0.0158
S. pneumoniae D39V, first compound 0.125 µg/mL, partner 4 µg/mL | 0.0138
S. pneumoniae D39V, first compound 0.5 µg/mL, partner 2 µg/mL | 0.0332
S. pneumoniae D39V, first compound 0.5 µg/mL, partner 4 µg/mL | 0.0303

one replicate
Conditions | fitness
B. subtilis 168, first compound 0.0098 µg/mL, partner 1 µg/mL | 0.951
B. subtilis 168, first compound 0.0195 µg/mL, partner 1 µg/mL | 0.75
B. subtilis 168, first compound 0.039 µg/mL, partner 1 µg/mL | 0.183
S. pneumoniae D39V, first compound 0.125 µg/mL, partner 0.125 µg/mL | ≥ 1
S. pneumoniae D39V, first compound 0.125 µg/mL, partner 0.25 µg/mL | 0.996
S. pneumoniae D39V, first compound 0.125 µg/mL, partner 0.5 µg/mL | 0.942
S. pneumoniae D39V, first compound 0.25 µg/mL, partner 0.125 µg/mL | 0.82
S. pneumoniae D39V, first compound 0.25 µg/mL, partner 0.25 µg/mL | 0.849
S. pneumoniae D39V, first compound 0.25 µg/mL, partner 0.5 µg/mL | 0.886
S. pneumoniae D39V, first compound 0.25 µg/mL, partner 1 µg/mL | 0.686
S. pneumoniae D39V, first compound 0.25 µg/mL, partner 2 µg/mL | 0
S. pneumoniae D39V, first compound 0.25 µg/mL, partner 4 µg/mL | 0
S. pneumoniae D39V, first compound 0.5 µg/mL, partner 0.125 µg/mL | 0.473
S. pneumoniae D39V, first compound 0.5 µg/mL, partner 0.25 µg/mL | 0.552
S. pneumoniae D39V, first compound 0.5 µg/mL, partner 0.5 µg/mL | 0.583

CC(=O)Oc1ccccc1C(=O)O [Acetylsalicylic acid] + CCCCCCCCCC(=O)N[C@@H]1[C@H]([C@@H]([C@H](O[C@H]1OC2=C3C=C4C=C2OC5=C(C=C(C=C5)[C@H]([C@H]6C(=O)N[C@@H](C7=C(C(=CC(=C7)O)OC8[C@H]([C@H]([C@@H]([C@H](O8)CO)O)O)O)C9=C(C=CC(=C9)[C@H](C(=O)N6)NC(=O)[C@@H]4NC(=O)[C@@H]1C2=CC(=CC(=C2)OC2=C(C=CC(=C2)[C@H](C(=O)N[C@H](CC2=CC(=C(O3)C=C2)Cl)C(=O)N1)N)O)O)O)C(=O)O)O[C@H]1[C@@H]([C@H]([C@@H]([C@H](O1)CO)O)O)NC(=O)C)Cl)CO)O)O [Teicoplanin]
fitness, S. aureus DSM 20231
Conditions | partner 0.1562 µg/mL | partner 0.3125 µg/mL | partner 0.625 µg/mL
first compound 250 µg/mL | 0.957 | 0.98 | 0.979
first compound 500 µg/mL | 0.887 | 0.894 | 0.871

O=C(O)c1cn(C2CC2)c2cc(N3CCNCC3)c(F)cc2c1=O [Ciprofloxacin] + CO[C@@]12[C@H](COC(N)=O)C3=C(C(=O)C(C)=C(N)C3=O)N1C[C@@H]1N[C@@H]12 [Mitomycin C]
Conditions | fitness
S. aureus Newman, first compound 0.0375 µg/mL, partner 0.0156 µg/mL | 0.609
S. aureus Newman, first compound 0.0375 µg/mL, partner 0.0312 µg/mL | 0.557
S. aureus Newman, first compound 0.0375 µg/mL, partner 0.0625 µg/mL | 0.366
S. aureus Newman, first compound 0.075 µg/mL, partner 0.0156 µg/mL | 0.573
S. aureus Newman, first compound 0.075 µg/mL, partner 0.0312 µg/mL | 0.497
S. aureus Newman, first compound 0.075 µg/mL, partner 0.0625 µg/mL | 0.219
S. aureus Newman, first compound 0.15 µg/mL, partner 0.0156 µg/mL | 0.152
S. aureus Newman, first compound 0.15 µg/mL, partner 0.0312 µg/mL | 0.0809
S. aureus Newman, first compound 0.15 µg/mL, partner 0.0625 µg/mL | 0.0294
S. pneumoniae D39V, first compound 0.125 µg/mL, partner 0.001075 µg/mL | 0.917
S. pneumoniae D39V, first compound 0.125 µg/mL, partner 0.002 µg/mL | 0.75
S. pneumoniae D39V, first compound 0.125 µg/mL, partner 0.00215 µg/mL | 0.892
S. pneumoniae D39V, first compound 0.125 µg/mL, partner 0.004 µg/mL | 0.632
S. pneumoniae D39V, first compound 0.125 µg/mL, partner 0.0043 µg/mL | 0.766
S. pneumoniae D39V, first compound 0.125 µg/mL, partner 0.008 µg/mL | 0.322
S. pneumoniae D39V, first compound 0.25 µg/mL, partner 0.001075 µg/mL | 0.861
S. pneumoniae D39V, first compound 0.25 µg/mL, partner 0.00215 µg/mL | 0.822
S. pneumoniae D39V, first compound 0.25 µg/mL, partner 0.0043 µg/mL | 0.736
S. pneumoniae D39V, first compound 0.5 µg/mL, partner 0.001075 µg/mL | 0.658
S. pneumoniae D39V, first compound 0.5 µg/mL, partner 0.00215 µg/mL | 0.643
S. pneumoniae D39V, first compound 0.5 µg/mL, partner 0.0043 µg/mL | 0.523
S. pneumoniae D39V, first compound 0.5 µg/mL, partner 0.008 µg/mL | 0.188

S. pneumoniae D39V, first compound 0.25 µg/mL, one replicate
Conditions | fitness
partner 0.002 µg/mL | 0.541
partner 0.004 µg/mL | 0.394
partner 0.008 µg/mL | 0.154

CO/N=C(\C(=O)N[C@@H]1C(=O)N2C(C(=O)O)=C(COC(N)=O)CS[C@H]12)c1ccco1 [Cefuroxime] + N[C@@H]1CONC1=O [Cycloserine D]
fitness, B. subtilis 168
Conditions | partner 0.125 µg/mL | partner 0.25 µg/mL | partner 0.5 µg/mL
first compound 0.0975 µg/mL | 0.677 | 0.63 | 0.648
first compound 0.195 µg/mL | 0.396 | 0.41 | 0.372

fitness, one replicate
Conditions | first compound 0.04875 µg/mL | first compound 0.0975 µg/mL | first compound 0.195 µg/mL | first compound 0.39 µg/mL | first compound 0.78 µg/mL | first compound 1.562 µg/mL | first compound 3.125 µg/mL | first compound 6.25 µg/mL
B. subtilis 168, partner 0.125 µg/mL | – | – | – | 0.337 | 0.303 | 0.361 | 0.287 | 0.201
B. subtilis 168, partner 0.25 µg/mL | – | – | – | 0.404 | 0.319 | 0.305 | 0.22 | 0.173
B. subtilis 168, partner 0.5 µg/mL | – | – | – | 0.306 | 0.284 | 0.228 | 0.204 | 0.111
S. aureus Newman, partner 0.375 µg/mL | 0.926 | 0.887 | 0.935 | – | – | – | – | –
S. aureus Newman, partner 0.75 µg/mL | 0.965 | 0.822 | 0.908 | – | – | – | – | –
S. aureus Newman, partner 1.5 µg/mL | 0.871 | 0.861 | 0.976 | – | – | – | – | –
